Columns and labels:
A2780 parental cell line = assay: A2780 assay, in vitro cytotoxicity (MTT); assay type: cell-based; conditions: Homo sapiens, A2780 cells, 72 hours incubation, absorbance 540 nm
Description: (§1) Determination of In Vitro Cytotoxicity
A2780 parental cell line was grown in Dulbecco's Modified Eagles' Media (DMEM) containing ˜10% Foetal Calf Serum (FCS) and ˜1% 200 mM L-Glutamine solution and grown in Corning Cellbind 75 cm^2 flasks.
190 μl cell suspension was added (at 1×10^4) to each well of columns 2 to 11 of a 96 well plate (Nunc 96F flat bottom TC plate). 190 μl of media was added to each well of columns 1 and 12. The media was Dulbecco's Modified Eagles' Media (DMEM) (which included ˜10% Foetal Calf Serum (FCS) and ˜1% 200 mM L-Glutamine solution).
Plates were incubated overnight at 37° C. before addition of drug if cells were adherent. 200 μM of the test compound solutions (in 100% DMSO) were serially diluted across a 96 well plate. Each resulting point was then further diluted 1/10 into sterile distilled water (SDW).
To the cell negative blanks and compound negative control wells, 10% DMSO was added at 5% v/v. Assay plates were incubated for the following durations at 37° C. in 5% CO2 in a humidified incubator for 72 hours. Following incubation, MTT solution to a final concentration of […] was added to each well. Plates were then incubated for a further 4 hours at 37° C. in 5% CO2 in a humidified incubator. […]
Plates were read at 540 nm absorbance using an Envision plate reader. Data was analysed using Microsoft Excel and GraphPad Prism and IC50 values obtained.

[1] = tested on: K562 human chronic myeloid leukaemia cells; assay: K562 assay, in vitro cytotoxicity (MTT); assay type: cell-based; conditions: drug incubation 1 hour or 96 hours (not specified which), dose reducing final optical density to 50% of control
Description: as §1
K562 human chronic myeloid leukaemia cells were maintained in RPM1 1640 medium supplemented with 10% fetal calf serum and 2 mM glutamine at 37° C. in a humidified atmosphere containing 5% CO2 and were incubated with a specified dose of drug for 1 hour or 96 hours at 37° C. in the dark. The incubation was terminated by centrifugation (5 min, 300 g) and the cells were washed once with drug-free medium. Following the appropriate drug treatment, the cells were transferred to 96-well microtiter plates (10^4 cells per well, 8 wells per sample). Plates were then kept in the dark at 37° C. in a humidified atmosphere containing 5% CO2. The assay is based on the ability of viable cells to reduce a yellow soluble tetrazolium salt, 3-(4,5-dimethylthiazol-2-yl)-2,5-diphenyl-2H-tetrazolium bromide (MTT, Aldrich-Sigma), to an insoluble purple formazan precipitate. Following incubation of the plates for 4 days (to allow control cells to increase in number by approximately 10 fold), 20 μL of MTT solution (5 mg/mL in phosphate-buffered saline) was added to each well and the plates further incubated for 5 h. […] The optical density was then read at a wavelength of 550 nm on a Titertek Multiscan ELISA plate reader, and a dose-response curve was constructed. […]

For `COc1ccc(C2=CN3C(=O)c4cc(OC)c(OCCCOc5cc6c(cc5OC)C(=O)N5C=C(c7ccc(N)cc7)C[C@H]5C=N6)cc4N=C[C@@H]3C2)cc1` [Compound 11, (S)-2-(4-aminophenyl)-7-methoxy-8-(3-((S)-7-methoxy-2-(4-methoxyphenyl)-5-oxo-5,11a-dihydro-1H-pyrrolo[2,1-c][1,4]benzodiazepine-8-yloxy)propoxy)-1H-pyrrolo[2,1-c][1,4]benzodiazepine-5(11aH)-one], which IC50 (A2780 parental cell line) is on record?
Its IC50 is 11.7 µM.

How did the IC50 [1] turn out when `COc1ccc(C2=CN3C(=O)c4cc(OC)c(OCCCCCOc5cc6c(cc5OC)C(=O)N5C=C(c7ccc(N)cc7)C[C@H]5C=N6)cc4N=C[C@@H]3C2)cc1` [Compound 13, (S)-2-(4-aminophenyl)-7-methoxy-8-(5-((S)-7-methoxy-2-(4-methoxyphenyl)-5-oxo-5,11a-dihydro-1H-pyrrolo[2,1-c][1,4]benzodiazepine-8-yloxy)pentyloxy)-1H-pyrrolo[2,1-c][1,4]benzodiazepine-5(11aH)-one] was run?
The IC50 was 30 µM.
